# Experimental data taken from patent US20020026053A1, “Novel 3-(substituted) -2- indolinones compounds and use thereof as inhibitors of protein kinase activity” (priority 1997, published 2002).
# Biological target: T1, EGFR (Homo sapiens, UniProt P00533)
# T1 construct: endogenous in cells; host or cells: A431 cells (lysate, captured with SUMO1 anti-EGFR antibody)
# Test: Biochemical EGFR Assay
# Design: concentration or dose not given beside the values
# Method: This assay measures the in vitro kinase activity of EGFR using ELISA.
# 1. Corning 96-well Elisa plates (Corning Catalog No. 25805-96).
# 2. SUMO1 monoclonal anti-EGFR antibody (Biochemistry Lab, SUGEN, Inc.).
# 3. PBS (Dulbecco's Phosphate-Buffered Saline, Gibco Catalog No. 450-1300EB).
# 6. A431 cell lysate (Screening Lab, SUGEN, Inc.)
# 9. Adenosine-5′-triphosphate (ATP, from Equine muscle, Sigma Cat. No. A-5394).
# Prepare a 1.0 mM solution in dH2O. This reagent should be made up immediately prior to use and kept on ice.
# Prepare a 1.0 M stock solution in dH2O.
# 11. ATP/MnCl2 phosphorylation mix
# This reagent should be prepared immediately before use and kept on ice
# 12. NUNC 96-well V bottom polypropylene plates (Applied Scientific Cat. No. AS-72092).
# 13. Ethylenediaminetetraacetic acid (EDTA)
# Prepare 200 mM working solution in dH2O. Adjust to pH 8.0 with 10 N NaOH.
# 14. Rabbit polyclonal anti-phosphotyrosine serum (Biochemistry Lab, SUGEN, Inc.)
# 15. Goat anti-rabbit IgG peroxidase conjugate (Biosource Cat. No. ALI0404)
# 16. ABTS (2,2′-azino-bis(3-ethylbenzthiazoline-6-sulfonic acid), Sigma Cat. No. A-1888).
# Mix first two ingredients in about 900 ml dH2O, adjust pH to 4.0 with phosphoric acid. Add ABTS, cover, let sit about 0.5 hr., filter. The solution should be kept in the dark at 4° C. until ready to use.
# 17. Hydrogen peroxide 30% solution (Fisher Cat. No. H325)
# Mix 15 ml ABTS solution and 2.0 μl H2O2. Prepare 5 minutes before use.
# 1. Coat Corning 96 well ELISA plates with 0.5 μg SUMO1 in 100 μl PBS per well, store overnight at 4° C.
# 2. Remove unbound SUMO1 from wells by inverting plate to remove liquid. Wash 1× with dH2O. Pat the plate on a paper towel to remove excess liquid.
# 3. Add 150 μl of Blocking Buffer to each well. Incubate for 30 min. at room temperature with shaking.
# 4. Wash plate 3× with deionized water, then once with TBST. Pat plate on a paper towel to remove excess liquid and bubbles.
# 5. Dilute lysate in PBS (7 μg lysate/100 μl PBS)
# 6. Add 100 μl of diluted lysate to each well. Shake at room temperature for 60 min.
# 7. Wash plates as described in 4, above.
# 8. Add 120 μl TBS to ELISA plate containing captured EGFR.
# 9. Dilute test compound 1:10 in TBS in 96-well polypropylene plates (ie. 10 μl compound+90 μl TBS).
# 10. Add 13.5 μl diluted test compound to ELISA plate.
# 11. Incubate for 30 minutes while shaking at room temperature.
# 13. After 5 minutes, stop reaction by adding 16.5 μl of 200 mM EDTA (pH 8.0) to each well, shaking continuously. After the EDTA has been added, shake for 1 min.
# 14. Wash 4× with deionized water, twice with TBST.
# 15. Add 100 μl anti-phosphotyrosine (1:3000 dilution in TBST) per well. Incubate 30-45 min. at room temperature, with shaking.
# 16. Wash as described in 4, above.
# 17. Add 100 μl Biosource Goat anti-rabbit IgG peroxidase conjugate (1:2000 dilution in TBST) to each well. Incubate 30 min. at room temperature, with shaking.
# 18. Wash as described in 4, above.
# 19. Add 100 μl of ABTS/H2O2 solution to each well.
# 20. Incubate 5 to 10 minutes with shaking. Remove any bubbles.
# 21. If necessary stop reaction with the addition of 100 μl 0.2 M HCl per well.
# 22. Read assay on Dynatech MR7000 ELISA reader. Test Filter: 410 nM Reference Filter: 630 nM
# T1 sequence (P00533 25-1210): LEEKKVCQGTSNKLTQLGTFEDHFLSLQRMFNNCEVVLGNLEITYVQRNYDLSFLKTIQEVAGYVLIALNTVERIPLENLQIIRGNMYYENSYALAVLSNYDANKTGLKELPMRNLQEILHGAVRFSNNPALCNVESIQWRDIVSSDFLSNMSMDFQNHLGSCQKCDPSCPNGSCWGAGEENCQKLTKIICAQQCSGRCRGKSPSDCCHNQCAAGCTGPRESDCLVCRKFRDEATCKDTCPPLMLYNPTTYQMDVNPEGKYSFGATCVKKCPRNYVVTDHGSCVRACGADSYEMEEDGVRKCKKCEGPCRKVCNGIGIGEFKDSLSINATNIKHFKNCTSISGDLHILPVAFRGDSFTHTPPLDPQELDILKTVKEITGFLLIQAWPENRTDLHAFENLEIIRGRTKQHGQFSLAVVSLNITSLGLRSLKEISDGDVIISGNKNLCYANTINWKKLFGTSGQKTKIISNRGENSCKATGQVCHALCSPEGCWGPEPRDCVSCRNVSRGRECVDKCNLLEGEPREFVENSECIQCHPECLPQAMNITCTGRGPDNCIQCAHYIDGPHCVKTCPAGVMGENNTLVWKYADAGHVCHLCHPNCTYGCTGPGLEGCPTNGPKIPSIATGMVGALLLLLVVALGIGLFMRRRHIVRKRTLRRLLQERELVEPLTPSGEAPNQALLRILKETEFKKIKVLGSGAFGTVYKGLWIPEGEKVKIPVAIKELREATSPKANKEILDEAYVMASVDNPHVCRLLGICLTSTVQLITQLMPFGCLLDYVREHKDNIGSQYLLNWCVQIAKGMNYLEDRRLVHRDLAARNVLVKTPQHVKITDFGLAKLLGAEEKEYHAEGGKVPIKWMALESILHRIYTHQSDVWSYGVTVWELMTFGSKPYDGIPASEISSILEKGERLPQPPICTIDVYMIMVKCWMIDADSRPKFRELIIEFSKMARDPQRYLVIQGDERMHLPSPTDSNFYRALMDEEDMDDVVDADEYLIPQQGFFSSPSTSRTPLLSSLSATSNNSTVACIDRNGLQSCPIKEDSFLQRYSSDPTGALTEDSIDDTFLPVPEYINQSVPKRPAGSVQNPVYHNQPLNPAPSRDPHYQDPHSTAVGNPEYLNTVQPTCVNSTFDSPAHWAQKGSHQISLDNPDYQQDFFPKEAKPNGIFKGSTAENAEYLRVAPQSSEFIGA
row,SMILES,Biochem EGFR % Inhibition (P.167)
1,Cc1c(Br)cc(Br)c2c1C(=CC(c1cccs1)C(F)(F)F)C(=O)N2 (centres unmarked) [10732/H02],13.0%
2,COc1c(C(C)C)cc(C=C2C(=O)Nc3c(Br)cc(Br)c(C)c32)cc1C(C)C [10732/H03],1.4%
3,Cc1c(Br)cc(Br)c2c1C(=Cc1cc(C(C)C)c(Oc3ccccc3)c(C(C)C)c1)C(=O)N2 [10732/H04],−0.7%
4,COc1ccc(C=C2C(=O)Nc3c(Br)cc(Br)c(C)c32)cc1C(C)(C)C [10732/H05],−2.9%
5,Cc1c(Br)cc(Br)c2c1C(=Cc1ccc(OCc3ccccc3)c(C(C)(C)C)c1)C(=O)N2 [10732/H06],−6.9%
6,COc1c(Br)cc(C=C2C(=O)Nc3c(Br)cc(Br)c(C)c32)cc1C(C)(C)C [10732/H07],−15.3%
7,Cc1c(Br)cc(Br)c2c1C(=Cc1cc(Br)c(OCc3ccccc3)c(C(C)(C)C)c1)C(=O)N2 [10732/H08],−14.0%
8,COc1c(Cl)cc(C=C2C(=O)Nc3c(Br)cc(Br)c(C)c32)cc1C(C)(C)C [10732/H09],−7.4%
9,Cc1c(Br)cc(Br)c2c1C(=Cc1cc(Cl)c(OCc3ccccc3)c(C(C)(C)C)c1)C(=O)N2 [10732/H10],−21.3%
10,COc1c(I)cc(C=C2C(=O)Nc3c(Br)cc(Br)c(C)c32)cc1C(C)(C)C [10732/H11],−15.1%
11,Cc1c(Br)cc(Br)c2c1C(=Cc1cc(I)c(OCc3ccccc3)c(C(C)(C)C)c1)C(=O)N2 [10733/H02],3.2%
12,COc1c([N+](=O)[O-])cc(C=C2C(=O)Nc3c(Br)cc(Br)c(C)c32)cc1C(C)(C)C [10733/H03],−16.5%
13,COc1c(C(C)(C)C)cc(C=C2C(=O)Nc3c(Br)cc(Br)c(C)c32)cc1C(C)(C)C [10733/H04],−24.0%
14,Cc1c(Br)cc(Br)c2c1C(=Cc1cc(C(C)(C)C)c(OCc3ccccc3)c(C(C)(C)C)c1)C(=O)N2 [10733/H05],15.9%
15,COc1c(C)cc(C=C2C(=O)Nc3c(Br)cc(Br)c(C)c32)cc1C [10733/H06],−10.5%
16,Cc1cc(C=C2C(=O)Nc3c(Br)cc(Br)c(C)c32)cc(C)c1OCc1ccccc1 [10733/H07],−6.2%
17,COc1cc(Br)cc(C=C2C(=O)Nc3c(Br)cc(Br)c(C)c32)c1O [10733/H08],0.3%
18,Cc1c(Br)cc(Br)c2c1C(=Cc1cc(Br)ccc1O)C(=O)N2 [10733/H09],−3.1%
19,Cc1c(Br)cc(Br)c2c1C(=Cc1cc([N+](=O)[O-])ccc1O)C(=O)N2 [10733/H10],−3.1%
20,COc1c(O)ccc(C=C2C(=O)Nc3c(Br)cc(Br)c(C)c32)c1[N+](=O)[O-] [10733/H11],7.0%
